Here are results for five compounds from patent EP0150227A1, “Dipeptide derivatives and their use in determining the activity of carboxypeptidase A” (FUJIREBIO KABUSHIKI KAISHA also trading as FUJIREBIO INC., priority 1983, dated 1985).

Non-standard residues stand in square brackets, D forms with d. Residues, ends and D or L forms follow the SMILES beside them. 4Abz = Nc1ccc(C(=O)O)cc1

Common to all, as to format: biochemical
Experiment [1] relates to carboxypeptidase A. In words: Spectrophotometric CP-A activity determination (hippuricase, benzoate hydroxylase, decrease of NADPH/NADH absorbance at 340 nm). The procedure:
[…] of serum (the same as used in Example 6) was added to 0.5 ml of a test reagent solution (pH 8.0) containing 10 mM p-hydroxybenzoylglycyl-L-tyrosine, 3000 U/1 hippuricase, 0.2 mM NADPH, 10000 U/1 p-hydroxybenzoate hydroxylase and 100 mM boric acid.
The decrease in the absorbance by the solution was measured at 340 nm of light at a temperature of 37°C during the course of the reaction. There was used for the measurement a reaction rate analyser in which the reaction time was five minutes. The activity value (mU/ml) of CP-A was automatically printed out in the analyser.
The calculation of activity was performed according to the following formula: [formula] wherein ε = 6.22 x 10^3 (Molecular extinction coefficient of NADPH)
The activity of CP-A was determined by repeating the procedure shown in Example 8 except that o-hydroxybenzoyl-L-isoleucyl-L-phenylalanine was used instead of p-hydroxybenzoylglycyl-L-tyrosine, salicylate hydroxylase was used instead of p-hydroxybenzoate hydroxylase, and nicotinamide adenine dinucleotide in reduced form (NADH) was used instead of NADPH.
The activity of CP-A was determined by repeating the procedure shown in Example 8 with a mixture prepared by adding 0.05 ml of serum (the same as used in Example 6) to 0.5 ml of a test reagent solution (pH 8.0) containing 30 mM p-methoxybenzoyl-L-leucyl-L-phenylalanine, 1000 U/1 hippuricase, 0.2 mM NADH, 20000 U/1 p-methoxybenzoate hydroxylase and 100 mM phosphoric acid.

Experiment [2] deals with carboxypeptidase A. In words: Colourimetric CP-A activity determination (hippuricase, NaNO2 diazotisation, azo dye at 505 nm). As to conditions: same serum as Example 6; 20 mM substrate, pH 8.0, 37°C, 20 minutes; repeated 20 times, CV 5.3%. The procedure: 0.05 ml of serum (the same as used in Example 6) containing CP-A was added to 0.5 ml of a test reagent solution (pH 8.0) containing 20 mM p-aminobenzoyl-L-alanyl-L-tyrosine, 0.5 M NaCl, 3000 U/1 hippuricase and 100 mM boric acid. After this mixture had been allowed to stand at 37°C for 20 minutes, 0.5 ml of a solution containing 2 mM NaN02 and 1 mM NaOH was added to the mixture, and the mixture was allowed to stand at room temperature for 10 minutes. 0.5 ml of a reagent solution containing 1 mM potassium l-naphthol-2-sulphate, 50 mM boric acid and 200 mM NaOH was added to the mixture. The absorbance by the solution was measured at 505 nm of light. This absorbance is referred to as Absorbance A.
Absorbance B was measured by repeating the procedure as shown above but using 0.05 ml of an aqueous solution containing 10 uM p-aminobenzoic acid instead of 0.05 ml of serum, and Absorbance C was measured by repeating the procedure as shown above but using 0.05 ml of distilled water instead of 0.05 ml of serum.
The activity value (mU/ml) of CP-A can be calculated by the following equation: [formula]

Experiment [3] relates to carboxypeptidase A. In words: Colourimetric CP-A activity determination (hippuricase, 4-aminoantipyrine, periodate, quinonimine dye at 505 nm). Conditions: serum containing carboxypeptidase A; 10 mM substrate, pH 7.8, 37°C, 20 minutes; test repeated 20 times, CV 3.4%. The protocol:
0.1 ml of serum containing carboxypeptidase A was added to 0.5 ml of a test reagent solution of pH 7.8 containing 10 mM p-hydroxybenzoyl-L-alanyl-L-phenylalanine, 0.1 M sodium chloride, 3000 U/1 hippuricase, 2.5 mM 4-aminoantipyrine and 100 mM N-2-hydroxyethyl piperazine-N-2-ethane sulphonic acid. The mixture was incubated at 37°C for 20 minutes. 1.5 ml of a reaction termination solution containing 6.5 mM sodium periodate was added to this reaction mixture. The mixture obtained was incubated at 37°C for five minutes, so that quinonimine dye was formed. The absorbance of the reaction mixture was measured at a light wavelength of 505 nm. This absorbance is referred to as Absorbance A.
Separately, for a blank (comparison) test, in the procedure as mentioned above, 1.5 ml of a reaction termination solution containing 6.5 mM sodium […] was added to the test reagent solution before 0.1 ml of serum containing carboxypeptidase A was added to the test reagent solution. The absorbance of the blank test reagent was then measured in the same manner as described above, at a light wavelength of 505 nm. This absorbance is referred to as Absorbance B.
The activity value (mU/ml) of carboxypeptidase A can be calculated by the following equation: [formula] where ε = 12000 (Molecular extinction coefficient or guinon- imine dye)

As for `CC[C@H](C)[C@H](NC(=O)c1ccccc1O)C(=O)N[C@@H](Cc1ccccc1)C(=O)O` [o-hydroxybenzoyl-L-isoleucyl-L-phenylalanine], the Activity value in the experiment with carboxypeptidase A [1] (procedure of Example 8 with salicylate hydroxylase and NADH, CV 7.0%) is 1.1 mU/ml.

The compound `C[C@H](NC(=O)c1ccc(N)cc1)C(=O)N[C@@H](Cc1ccc(O)cc1)C(=O)O` [p-aminobenzoyl-L-alanyl-L-tyrosine] (H-[4Abz]-Ala-Tyr-OH) showed an Activity value in the experiment with carboxypeptidase A [2] of 1.7 mU/ml.

On to `C[C@H](NC(=O)c1ccc(O)cc1)C(=O)N[C@@H](Cc1ccccc1)C(=O)O` [p-hydroxybenzoyl-L-alanyl-L-phenylalanine], for which the Activity value with carboxypeptidase A [3] is on record as 5.1 mU/ml.

On to `O=C(CNC(=O)c1ccc(O)cc1)N[C@@H](Cc1ccc(O)cc1)C(=O)O` [p-hydroxybenzoylglycyl-L-tyrosine], for which the Activity value in the experiment with carboxypeptidase A [1] (same serum as Example 6, 10 mM substrate, pH 8.0, 37°C, 0.2 mM NADPH, p-hydroxybenzoate hydroxylase, repeated 20 times, CV 5.2%) was 6.2 mU/ml.

Consider `COc1ccc(C(=O)N[C@@H](CC(C)C)C(=O)N[C@@H](Cc2ccccc2)C(=O)O)cc1` [p-methoxybenzoyl-L-leucyl-L-phenylalanine], for which the Activity value in the experiment with carboxypeptidase A [1] (same serum as Example 6, 30 mM substrate, pH 8.0, 0.2 mM NADH, p-methoxybenzoate hydroxylase, 100 mM phosphoric acid, CV 4.7%) was determined as 2.5 mU/ml.
